Measured values reported in PubChem BioAssay AID2060513 (Molecular Pharmacology Branch, DTP, NCI, 2025).

System: 299254-011-R-J1-PDC complex spheroids viability
Assay: Anticancer human tumor 299254-011-R-J1-PDC patient-derived melanoma cell line growth inhibition [GQUAD]
Details: for IC50: curve of first compound; for viability, T/C: stronger effect = lower value; active = viability on the fitted dose curve at most 10% of control; inactive = the rest
In short: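 Viability of tumor cells grown as complex spheroids with endothelial and stromal cells, exposed to drug combinations. Top concentration at or near clinical Cmax (else 10 microM), diluted in half-log increments.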

[1] = second compound 0.0316 µM, first compound 0.0316 µM
[2] = second compound 0.0316 µM, first compound 0.1 µM
[3] = second compound 0.0316 µM, first compound 0.316 µM
[4] = second compound 0.0316 µM, first compound 1 µM
[5] = second compound 0.0316 µM, first compound 3.16 µM
[6] = second compound 0.0316 µM, first compound 10 µM
[7] = second compound 0.1 µM, first compound 0.0316 µM
[8] = second compound 0.1 µM, first compound 0.1 µM
[9] = second compound 0.1 µM, first compound 0.316 µM
[10] = second compound 0.1 µM, first compound 1 µM
[11] = second compound 0.1 µM, first compound 3.16 µM
[12] = second compound 0.1 µM, first compound 10 µM
[13] = second compound 0.316 µM, first compound 0.0316 µM
[14] = second compound 0.316 µM, first compound 0.1 µM
[15] = second compound 0.316 µM, first compound 0.316 µM
[16] = second compound 0.316 µM, first compound 1 µM
[17] = second compound 0.316 µM, first compound 3.16 µM
[18] = second compound 0.316 µM, first compound 10 µM
[19] = second compound 1 µM, first compound 0.0316 µM
[20] = second compound 1 µM, first compound 0.1 µM
[21] = second compound 1 µM, first compound 0.316 µM
[22] = second compound 1 µM, first compound 1 µM
[23] = second compound 1 µM, first compound 3.16 µM
[24] = second compound 1 µM, first compound 10 µM
[25] = second compound 3.16 µM, first compound 0.0316 µM
[26] = second compound 3.16 µM, first compound 0.1 µM
[27] = second compound 3.16 µM, first compound 0.316 µM
[28] = second compound 3.16 µM, first compound 1 µM
[29] = second compound 3.16 µM, first compound 3.16 µM
[30] = second compound 3.16 µM, first compound 10 µM
[31] = second compound 10 µM, first compound 0.0316 µM
[32] = second compound 10 µM, first compound 0.1 µM
[33] = second compound 10 µM, first compound 0.316 µM
[34] = second compound 10 µM, first compound 1 µM
[35] = second compound 10 µM, first compound 3.16 µM
[36] = second compound 10 µM, first compound 10 µM
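Also: spheroids exposed to the agents for seven days before readout.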
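For viability, T/C in this document: percent viability relative to DMSO vehicle control wells = 100%.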

CC(=O)O[C@H]1C(=O)[C@@]2(C)[C@H]([C@H](OC(=O)c3ccccc3)[C@]3(O)C[C@H](OC(=O)[C@H](O)[C@@H](NC(=O)c4ccccc4)c4ccccc4)C(C)=C1C3(C)C)[C@]1(OC(C)=O)CO[C@@H]1C[C@@H]2O + Cc1cnc(CNC(=O)c2c(=O)c3ccc(N4CCCN(C)CC4)nc3n3c2sc2ccccc23)cn1
412 nM: IC50 (second compound 0.0316 µM)
273 nM: IC50 (second compound 0.316 µM)
active: viability, T/C [31] 0.42% | viability, T/C [32] 0.39% | viability, T/C [33] 0.41% | viability, T/C [34] 0.35% | viability, T/C [35] 0.4% | viability, T/C [36] 0.34%
169 nM: IC50 (second compound 1 µM)
205 nM: IC50 (second compound 3.16 µM)
243 nM: IC50 (second compound 0.1 µM)
< 31.6 nM: IC50 (second compound 10 µM)
inactive: viability, T/C [1] 90% | viability, T/C [2] 77.5% | viability, T/C [3] 58.8% | viability, T/C [4] 23.7% | viability, T/C [5] 26.8% | viability, T/C [6] 23% | viability, T/C [7] 114% | viability, T/C [8] 89.2% | viability, T/C [9] 38.1% | viability, T/C [10] 29.3% | viability, T/C [11] 29.1% | viability, T/C [12] 23.3% | viability, T/C [13] 94.4% | viability, T/C [14] 75.1% | viability, T/C [15] 44.9% | viability, T/C [16] 32.1% | viability, T/C [17] 24.1% | viability, T/C [18] 22.7% | viability, T/C [19] 67.6% | viability, T/C [20] 62.8% | viability, T/C [21] 34.6% | viability, T/C [22] 30.8% | viability, T/C [23] 24.9% | viability, T/C [24] 27.1% | viability, T/C [25] 57.7% | viability, T/C [26] 58% | viability, T/C [27] 43.6% | viability, T/C [28] 39.8% | viability, T/C [29] 25.6% | viability, T/C [30] 29.2%

COc1cccc2c1C(=O)c1c(O)c3c(c(O)c1C2=O)CC(O)(C(=O)CO)CC3OC1CC(N)C(O)C(C)O1 (centres undefined) + Cc1cnc(CNC(=O)c2c(=O)c3ccc(N4CCCN(C)CC4)nc3n3c2sc2ccccc23)cn1
2380 nM: IC50 (second compound 3.16 µM)
3990 nM: IC50 (second compound 1 µM)
active: viability, T/C [24] 0.21% | viability, T/C [30] 0.21% | viability, T/C [35] 0.39% | viability, T/C [36] 0.28%
inactive: viability, T/C [1] 104% | viability, T/C [2] 106% | viability, T/C [3] 87% | viability, T/C [4] 88.3% | viability, T/C [5] 61.3% | viability, T/C [6] 16.9% | viability, T/C [7] 110% | viability, T/C [8] 104% | viability, T/C [9] 95.2% | viability, T/C [10] 88.2% | viability, T/C [11] 70.5% | viability, T/C [12] 20.9% | viability, T/C [13] 83.3% | viability, T/C [14] 95% | viability, T/C [15] 75.9% | viability, T/C [16] 78.9% | viability, T/C [17] 54.9% | viability, T/C [18] 11.1% | viability, T/C [19] 81.2% | viability, T/C [20] 76.3% | viability, T/C [21] 86.7% | viability, T/C [22] 76.4% | viability, T/C [23] 63% | viability, T/C [25] 84.8% | viability, T/C [26] 87.7% | viability, T/C [27] 66.2% | viability, T/C [28] 78.2% | viability, T/C [29] 41.1% | viability, T/C [31] 38.2% | viability, T/C [32] 19.6% | viability, T/C [33] 53.9% | viability, T/C [34] 63.3%
4260 nM: IC50 (second compound 0.0316 µM)
4920 nM: IC50 (second compound 0.1 µM)
31.6 nM: IC50 (second compound 10 µM)
3640 nM: IC50 (second compound 0.316 µM)
